# Data published in ChEMBL document CHEMBL4627332, “Interruption of Vif/Elongin C interaction: In silico and experimental elucidation of the underlying molecular mechanism of benzimidazole-based APOBEC3G stabilizers” (Bioorg Med Chem, 2020).
# Activity calls are given as the source filed them. No cut-off for these calls is given here.
# Assay: Inhibition of HIV1 Vif interaction with ElonginC (unknown origin) co-transfected in 293 T cells assessed as decrease in ElonginC precipitation at 20 uM measured after 1 hr in presence of ant-FLAG antibody by immunoblot analysis
# Assay type: cell-based
smiles,measurement,value
Cc1noc(C)c1CSc1nc2ccccc2n1-c1ccccc1,inhibition,Active
